Like-named read-outs stand apart in the source and are kept apart here.
Experiments:
[1] = target: T1, recombinant full-length WRN protein (1-1432) (Homo sapiens, UniProt Q14191); assay: WRN unwinding activity, fluorogenic 384-well assay (Example A); assay type: biochemical; conditions: WRN unwinding activity, 4 hr; Table 2; read-out: 4 hr UNW pIC50 (converted)
T1 construct: recombinant full-length WRN protein (1-1432)
How it was run: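 Read-out is end-point unwinding of a fluorophore/quencher duplex (ex 525, em 598 nm) after 60 min with 200 μM ATP and 12 nM DNA (2× stocks), EDTA stop. Compound first sat 4 h with 200 pM WRN (2× stock) in pH 8.0 Tris buffer; four-parameter fit gives pIC50.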

[2] = Cell culture media unbound percentage and stability by rapid equilibrium dialysis (Example C); assay type: in vitro ADME; conditions: bovine, cell assay medium (RPMI-1640 with 10% fetal bovine serum), pH 7.4, rapid equilibrium dialysis, 4 hours at 37° C., read-out: Cell Culture Media Binding (% unbound)
How it was run: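 Percent unbound in cell assay medium came from the LC-MS/MS receiver:donor peak area ratio, with stability taken as the 240 min over 0 min ratio. Set-up: 1 μM nominal compound in medium dialysed against pH 7.4 PBS (100 mM phosphate, 150 mM NaCl), 4 h, 37° C, shaken, in triplicate.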

[3] = tested on: SW48 human colorectal cancer cells; assay: Calculated free drug potency in SW48 cell assay, corrected with media free fraction (Example C); assay type: cell-based; conditions: Homo sapiens, SW48, SW48 pCC50 corrected with measured free fraction in cell assay media
How it was run: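 Free drug potency derives from correcting SW48 assay concentrations with the unbound fraction in medium. That fraction came from RED against pH 7.4 PBS, 1 μM nominal compound, 4 h at 37 °C, quantified by LC-MS/MS peak area ratios at T=240 versus T=0 min.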

[4] = tested on: SW48 human colorectal cancer cells (MSI-H cancer cells); assay: SW48 cell viability, CellTiter-Glo, 120 hours (Example B); conditions: Homo sapiens
[5] = SW48, 120 h, read-out: SW48 pCC50, SW48 cell viability, 120 hours incubation (converted), Table 2
[6] = SW48, read-out: SW48 pCC50, measured potency from Example B, as repeated in Table 3 (converted)

T1 sequence (Q14191 whole entry): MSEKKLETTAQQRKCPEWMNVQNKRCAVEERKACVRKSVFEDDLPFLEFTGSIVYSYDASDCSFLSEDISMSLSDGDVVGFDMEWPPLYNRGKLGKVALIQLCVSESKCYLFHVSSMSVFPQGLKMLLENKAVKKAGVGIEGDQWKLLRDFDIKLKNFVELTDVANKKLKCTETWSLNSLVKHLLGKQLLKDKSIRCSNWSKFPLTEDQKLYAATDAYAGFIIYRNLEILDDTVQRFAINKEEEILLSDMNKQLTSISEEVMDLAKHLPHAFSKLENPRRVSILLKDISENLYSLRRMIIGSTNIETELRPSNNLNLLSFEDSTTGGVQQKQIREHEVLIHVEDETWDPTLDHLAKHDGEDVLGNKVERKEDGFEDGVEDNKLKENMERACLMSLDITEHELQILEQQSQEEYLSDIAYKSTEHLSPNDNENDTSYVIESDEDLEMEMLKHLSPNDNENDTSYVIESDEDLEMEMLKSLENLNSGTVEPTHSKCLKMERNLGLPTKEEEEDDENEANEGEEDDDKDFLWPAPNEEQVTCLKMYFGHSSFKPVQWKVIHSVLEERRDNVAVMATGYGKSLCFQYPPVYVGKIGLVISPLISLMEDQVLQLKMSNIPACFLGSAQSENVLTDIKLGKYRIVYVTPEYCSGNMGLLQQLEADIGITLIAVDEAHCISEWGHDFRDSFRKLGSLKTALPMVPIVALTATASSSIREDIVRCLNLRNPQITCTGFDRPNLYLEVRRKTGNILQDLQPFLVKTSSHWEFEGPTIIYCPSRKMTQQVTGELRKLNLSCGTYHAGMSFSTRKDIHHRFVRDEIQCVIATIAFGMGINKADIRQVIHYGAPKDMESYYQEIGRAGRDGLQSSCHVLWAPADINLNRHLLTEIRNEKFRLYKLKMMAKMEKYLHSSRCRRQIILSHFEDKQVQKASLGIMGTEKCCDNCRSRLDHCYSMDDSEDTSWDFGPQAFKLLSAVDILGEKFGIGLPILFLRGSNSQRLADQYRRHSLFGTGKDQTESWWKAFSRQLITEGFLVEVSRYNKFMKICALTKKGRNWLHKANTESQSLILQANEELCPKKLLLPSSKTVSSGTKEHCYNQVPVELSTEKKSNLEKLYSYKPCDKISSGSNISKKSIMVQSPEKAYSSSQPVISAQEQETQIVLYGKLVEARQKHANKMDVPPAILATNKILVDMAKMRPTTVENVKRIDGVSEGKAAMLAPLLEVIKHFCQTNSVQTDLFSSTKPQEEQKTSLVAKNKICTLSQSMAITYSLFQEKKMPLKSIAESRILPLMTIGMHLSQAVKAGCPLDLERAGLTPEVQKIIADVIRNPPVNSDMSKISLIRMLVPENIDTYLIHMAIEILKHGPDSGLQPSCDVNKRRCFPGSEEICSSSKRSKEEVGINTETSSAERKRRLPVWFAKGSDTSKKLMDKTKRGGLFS

| SMILES | IC50 [1] | fraction unbound at 4 h, 1 µM [2] | CC50 [3] | CC50 [4, 5] | CC50 [4, 6] |
| --- | --- | --- | --- | --- | --- |
| Cc1nc2cc(S(=O)(=O)N(C)c3ccc([C@H]4C[C@@H](OC5CCC5)C[C@@H](C(=O)Nc5ccc(C(F)(F)F)cc5F)[C@@H]4C(=O)O)cc3)ccc2n1C (stereo in doubt) [Example 325, rel-(1R,2R,4R,6S)-4-cyclobutoxy-2-((2-fluoro-4-(trifluoromethyl)phenyl)carbamoyl)-6-(4-((N,1,2-trimethyl-1H-benzo[d]imidazole)-5-sulfonamido)phenyl)cyclohexane-1-carboxylic acid] | 2 nM | 0.0862 | 17.4 nM | 200 nM | 200 nM |
| Cc1nc2cc(S(=O)(=O)N(C)c3ccc([C@H]4C[C@@H](NCC(F)(F)F)C[C@@H](C(=O)Nc5ccc(C(F)(F)F)cc5F)[C@@H]4C(=O)O)cc3)ccc2n1C (stereo in doubt) [Example 334, rel-(1R,2R,4R,6S)-2-((2-fluoro-4-(trifluoromethyl)phenyl)carbamoyl)-4-((2,2,2-trifluoroethyl)amino)-6-(4-((N,1,2-trimethyl-1H-benzo[d]imidazole)-5-sulfonamido)phenyl)cyclohexane-1-carboxylic acid] | 1.58 nM | 0.183 | 45.7 nM | 251 nM | 251 nM |
| Cc1nc2cc(S(=O)(=O)N(C)c3ccc([C@H]4C[C@H](NCC(F)(F)F)C[C@@H](C(=O)Nc5ccc(C(F)(F)F)cc5F)[C@@H]4C(=O)O)cc3)ccc2n1C (stereo in doubt) [Example 336, rel-(1R,2R,4S,6S)-2-((2-fluoro-4-(trifluoromethyl)phenyl)carbamoyl)-4-((2,2,2-trifluoroethyl)amino)-6-(4-((N,1,2-trimethyl-1H-benzo[d]imidazole)-5-sulfonamido)phenyl)cyclohexane-1-carboxylic acid] | 1.58 nM | 0.0491 | 155 nM | 3160 nM | 3160 nM |
| Cc1nc2cc(S(=O)(=O)N(C)c3ccc([C@H]4C[C@@H](N5CCC(F)(F)CC5)C[C@@H](C(=O)Nc5ccc(C(F)(F)F)cc5F)[C@@H]4C(=O)O)cc3)ccc2n1C (stereo in doubt) [Example 344] | 5.01 nM | 0.118 | 14.8 nM | 126 nM | 126 nM |
| Cc1nc2cc(S(=O)(=O)N(C)c3ccc([C@H]4C[C@H](N5CCCC(F)(F)C5)C[C@@H](C(=O)Nc5ccc(C(F)(F)F)cc5F)[C@@H]4C(=O)O)cc3)ccc2n1C (stereo in doubt) [Example 352, rel-(1R,2R,4S,6S)-4-(3,3-difluoropiperidin-1-yl)-2-((2-fluoro-4-(trifluoromethyl)phenyl)carbamoyl)-6-(4-((N,1,2-trimethyl-1H-benzo[d]imidazole)-5-sulfonamido)phenyl)cyclohexane-1-carboxylic acid] | 3.98 nM | 0.028 | 112 nM | 3980 nM | 3980 nM |
| Cc1nc2cc(S(=O)(=O)N(C)c3ccc([C@@H]4C[C@@H](N5CCCC(F)(F)C5)C[C@H](C(=O)Nc5ccc(C(F)(F)F)cc5F)[C@H]4C(=O)O)cc3)ccc2n1C (stereo in doubt) [Example 362, rel-(1R,2R,4S,6S)-4-(3,3-difluoropiperidin-1-yl)-2-((2-fluoro-4-(trifluoromethyl)phenyl)carbamoyl)-6-(4-((N,1,2-trimethyl-1H-benzo[d]imidazole)-5-sulfonamido)phenyl)cyclohexane-1-carboxylic acid] | 1580 nM | 0.169 | 1700 nM | 10000 nM |  |
| Cc1nc2cc(S(=O)(=O)N(C)c3ccc([C@H]4C[C@@H](OCC5(C)COC5)C[C@@H](C(=O)Nc5ccc(C(F)(F)F)cc5F)[C@@H]4C(=O)O)cc3)ccc2n1C (stereo in doubt) [Example 367, rel-(1R,2R,4R,6S)-2-((2-fluoro-4-(trifluoromethyl)phenyl)carbamoyl)-4-((3-methyloxetan-3-yl)methoxy)-6-(4-((N,1,2-trimethyl-1H-benzo[d]imidazole)-5-sulfonamido)phenyl)cyclohexane-1-carboxylic acid] | 1.58 nM | 0.145 | 11.5 nM | 79.4 nM | 79.4 nM |

Continued, in another order:

| IC50 [1] | fraction unbound at 4 h, 1 µM [2] | SMILES | CC50 [3] | CC50 [4, 5] | CC50 [4, 6] |
| --- | --- | --- | --- | --- | --- |
| 1.58 nM | 0.144 | Cc1nc2cc(S(=O)(=O)N(C)c3ccc([C@H]4C[C@@H](O[C@H]5CCOC5)C[C@@H](C(=O)Nc5ccc(C(F)(F)F)cc5F)[C@@H]4C(=O)O)cc3)ccc2n1C (stereo in doubt) [Example 323, (1R*,2R*,4R*,6S*)-2-((2-fluoro-4-(trifluoromethyl)phenyl)carbamoyl)-4-(((S)-tetrahydrofuran-3-yl)oxy)-6-(4-((N,1,2-trimethyl-1H-benzo[d]imidazole)-5-sulfonamido)phenyl)cyclohexane-1-carboxylic acid] | 14.5 nM | 100 nM | 100 nM |
| 1.58 nM | 0.205 | Cc1nc2cc(S(=O)(=O)N(C)c3ccc([C@H]4C[C@@H](OC[C@@H]5COCCO5)C[C@@H](C(=O)Nc5ccc(C(F)(F)F)cc5F)[C@@H]4C(=O)O)cc3)ccc2n1C (stereo in doubt) [Example 329, (1R*,2R*,4R*,6S*)-4-(((S)-1,4-dioxan-2-yl)methoxy)-2-((2-fluoro-4-(trifluoromethyl)phenyl)carbamoyl)-6-(4-((N,1,2-trimethyl-1H-benzo[d]imidazole)-5-sulfonamido)phenyl)cyclohexane-1-carboxylic acid] | 12.9 nM | 63.1 nM | 63.1 nM |
| 126 nM | 0.326 | Cc1nc2cc(S(=O)(=O)N(C)c3ccc([C@@H]4C[C@H](NCC(F)(F)F)C[C@H](C(=O)Nc5ccc(C(F)(F)F)cc5F)[C@H]4C(=O)O)cc3)ccc2n1C (stereo in doubt) [Example 333, rel-(1R,2R,4R,6S)-2-((2-fluoro-4-(trifluoromethyl)phenyl)carbamoyl)-4-((2,2,2-trifluoroethyl)amino)-6-(4-((N,1,2-trimethyl-1H-benzo[d]imidazole)-5-sulfonamido)phenyl)cyclohexane-1-carboxylic acid] | 3240 nM | 10000 nM |  |
| 100 nM | 0.237 | Cc1nc2cc(S(=O)(=O)N(C)c3ccc([C@@H]4C[C@H](N5CCC(F)(F)CC5)C[C@H](C(=O)Nc5ccc(C(F)(F)F)cc5F)[C@H]4C(=O)O)cc3)ccc2n1C (stereo in doubt) [Example 343] | 1170 nM | 5010 nM | 5010 nM |
| 3980 nM | 0.419 | Cc1nc2cc(S(=O)(=O)N(C)c3ccc([C@@H]4C[C@@H](N5CCC[C@@H](F)C5)C[C@H](C(=O)Nc5ccc(C(F)(F)F)cc5F)[C@H]4C(=O)O)cc3)ccc2n1C (stereo in doubt) [Example 346, rel-(1R*,2R*,4S*,6S*)-2-((2-fluoro-4-(trifluoromethyl)phenyl)carbamoyl)-4-((R)-3-fluoropiperidin-1-yl)-6-(4-((N,1,2-trimethyl-1H-benzo[d]imidazole)-5-sulfonamido)phenyl)cyclohexane-1-carboxylic acid] | 4170 nM | 10000 nM |  |
| 1.58 nM | 0.218 | Cc1nc2cc(S(=O)(=O)N(C)c3ccc([C@H]4C[C@@H](N5CCC[C@H](F)C5)C[C@@H](C(=O)Nc5ccc(C(F)(F)F)cc5F)[C@@H]4C(=O)O)cc3)ccc2n1C (stereo in doubt) [Example 350, rel-(1R*,2R*,4R*,6S*)-2-((2-fluoro-4-(trifluoromethyl)phenyl)carbamoyl)-4-((S)-3-fluoropiperidin-1-yl)-6-(4-((, 1,2-trimethyl-1H-benzo[d]imidazole)-5-sulfonamido)phenyl)cyclohexane-1-carboxylic acid] | 13.8 nM | 63.1 nM | 63.1 nM |
| 3.98 nM | 0.128 | Cc1nc2cc(S(=O)(=O)N(C)c3ccc([C@H]4C[C@@H](OCC5CCOCC5)C[C@@H](C(=O)Nc5ccc(C(F)(F)F)cc5F)[C@@H]4C(=O)O)cc3)ccc2n1C (stereo in doubt) [Example 355, rel-(1R,2R,4R,6S)-2-((2-fluoro-4-(trifluoromethyl)phenyl)carbamoyl)-4-((tetrahydro-2H-pyran-4-yl)methoxy)-6-(4-((N,1,2-trimethyl-1H-benzo[d]imidazole)-5-sulfonamido)phenyl)cyclohexane-1-carboxylic acid] | 12.9 nM | 100 nM | 100 nM |
